# Measured values: PubChem BioAssay (NCI)
#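 Each compound was tested at five concentrations against cells in 96-well plates for 48 hours. TGI: concentration producing complete growth inhibition.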
# What was measured:
# Experiment in all cases: growth of human tumour cells (NCI), 48 h
# [1] = system: U251 CNS
# [2] = system: IGROV1 ovarian
# [3] = system: OVCAR-8 ovarian
# [4] = system: SF-268 CNS
# [5] = system: SN12C renal
# [6] = system: KM12 colon
# [7] = system: NCI/ADR-RES ovarian
# [8] = system: 786-0 renal
# [9] = system: SF-295 CNS
# [10] = system: CCRF-CEM leukemia
# [11] = system: SK-MEL-2 melanoma
# [12] = system: SNB-75 CNS
# [13] = system: HT29 colon
# [14] = system: PC-3 prostate
# [15] = system: HCT-15 colon
# [16] = system: NCI-H460 lung
# [17] = system: NCI-H522 lung
# [18] = system: A549 NSCLC
# [19] = system: SK-MEL-28 melanoma
# [20] = system: NCI-H226 lung
# [21] = system: EKVX NSCLC
# [22] = system: M14 melanoma
# [23] = system: SK-OV-3 ovarian
# [24] = system: MDA-MB-231 breast
# [25] = system: OVCAR-3 ovarian
# [26] = system: DU-145 prostate
# [27] = system: TK-10 renal
# [28] = system: RPMI-8226 leukemia
# [29] = system: LOX IMVI melanoma
# [30] = system: MOLT-4 leukemia
# [31] = system: SNB-19 CNS
# [32] = system: OVCAR-5 ovarian
# [33] = system: HCC-2998 colon
# [34] = system: MALME-3M melanoma
# [35] = system: A498 renal
# [36] = system: OVCAR-4 ovarian
# [37] = system: MCF7 breast
# [38] = system: UACC-257 melanoma
# [39] = system: UACC-62 melanoma
# [40] = system: SR leukemia
# [41] = system: NCI-H23 lung
# [42] = system: HL-60(TB) leukemia
# [43] = system: CAKI-1 renal
# [44] = system: HOP-62 NSCLC
# [45] = system: MDA-MB-435
# [46] = system: SW-620 colon
# [47] = system: ACHN renal
# [48] = system: SK-MEL-5 melanoma
# [49] = system: MDA-N
# [50] = system: HS 578T breast
# [51] = system: COLO 205 colon
# [52] = system: RXF 393 renal
# [53] = system: K-562 leukemia
# [54] = system: SF-539 CNS
# [55] = system: HOP-92 NSCLC
# [56] = system: T-47D breast
# [57] = system: HCT-116 colon
smiles,measurement,setting,value
COc1cc(Br)c(CC2C3=C(CCN2C(=O)C2CCC2)CC2(CC3)OCCO2)cc1O (configuration not stated),TGI,[1],> 100 µM
same,TGI,[2],> 100 µM
same,TGI,[3],> 100 µM
same,TGI,[4],> 100 µM
same,TGI,[5],> 100 µM
same,TGI,[6],> 100 µM
same,TGI,[7],> 100 µM
same,TGI,[8],> 100 µM
same,TGI,[9],> 100 µM
same,TGI,[10],> 100 µM
same,TGI,[11],> 100 µM
same,TGI,[12],76.8 µM
same,TGI,[13],60.3 µM
same,TGI,[14],> 100 µM
same,TGI,[15],> 100 µM
same,TGI,[16],> 100 µM
same,TGI,[17],98.4 µM
same,TGI,[18],> 100 µM
same,TGI,[19],> 100 µM
same,TGI,[20],> 100 µM
same,TGI,[21],> 100 µM
same,TGI,[22],> 100 µM
same,TGI,[23],> 100 µM
same,TGI,[24],> 100 µM
same,TGI,[25],> 100 µM
same,TGI,[26],> 100 µM
same,TGI,[27],> 100 µM
same,TGI,[28],> 100 µM
same,TGI,[29],> 100 µM
same,TGI,[30],> 100 µM
same,TGI,[31],> 100 µM
same,TGI,[32],> 100 µM
same,TGI,[33],> 100 µM
same,TGI,[34],> 100 µM
same,TGI,[35],> 100 µM
same,TGI,[36],> 100 µM
same,TGI,[37],> 100 µM
same,TGI,[38],> 100 µM
same,TGI,[39],> 100 µM
same,TGI,[40],> 100 µM
same,TGI,[41],79.7 µM
same,TGI,[42],> 100 µM
same,TGI,[43],> 100 µM
same,TGI,[44],> 100 µM
same,TGI,[45],64 µM
same,TGI,[46],> 100 µM
same,TGI,[47],> 100 µM
same,TGI,[48],> 100 µM
same,TGI,[49],> 100 µM
same,TGI,[50],> 100 µM
same,TGI,[51],34.8 µM
same,TGI,[52],44.4 µM
same,TGI,[53],> 100 µM
same,TGI,[54],> 100 µM
same,TGI,[55],> 100 µM
same,TGI,[56],> 100 µM
same,TGI,[57],> 100 µM
